Tests used:
[1] = molecular target: T1, purified recombinant CDC25C enzyme (MBP-CDC25C protein) (Homo sapiens, UniProt P30307); test: Phosphatase activity of the purified recombinant CDC25C enzyme (OMFP dephosphorylation, fluorescence); type: biochemical; settings: OMFP 500 μM, 4 hours at 30° C., three independent experiments; nested upper bounds; read-out: IC50 for the phosphatase activity of the purified recombinant CDC25-C enzyme
T1 construct: made in house
T1 sequence (P30307 1-473): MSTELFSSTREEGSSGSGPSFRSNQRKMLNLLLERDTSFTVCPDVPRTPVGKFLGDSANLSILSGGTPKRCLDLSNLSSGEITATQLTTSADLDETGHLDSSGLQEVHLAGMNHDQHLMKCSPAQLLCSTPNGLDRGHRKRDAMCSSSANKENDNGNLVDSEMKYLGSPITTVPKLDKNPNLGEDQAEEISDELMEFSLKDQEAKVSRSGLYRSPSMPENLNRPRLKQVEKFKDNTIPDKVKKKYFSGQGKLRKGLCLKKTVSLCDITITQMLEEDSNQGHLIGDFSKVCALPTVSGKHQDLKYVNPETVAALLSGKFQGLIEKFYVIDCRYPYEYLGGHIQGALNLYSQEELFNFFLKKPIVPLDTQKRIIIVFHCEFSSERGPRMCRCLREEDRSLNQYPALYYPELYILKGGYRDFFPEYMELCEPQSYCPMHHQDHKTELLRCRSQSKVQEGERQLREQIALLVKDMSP
Experimental: i) Determination of the Phosphatase Activity of the Purified Recombinant CDC25C Enzyme:
The phosphatase activity of the MBP-CDC25C protein is evaluated through its dephosphorylation of 3-O-methylfluorescein-phosphate (OMFP) to form 3-O-methylfluorescein (OMF), determining the fluorescence of the reaction product at 475 nm. This assay can be used to identify inhibitors of the recombinant CDC25 enzyme. The preparation of the MBP-CDC25C fusion protein is described in the PCT patent application published under the number WO 01/44467.
The reaction is performed in 384-well plates in a final volume of 50 μl. The MBP-CDC25C protein (prepared as described hereinabove) is stored in the following elution buffer: 20 mM Tris-HCl pH 7.4; 250 mM NaCl; 1 mM EDTA; 1 mM dithiothreitol (DTT); 10 mM maltose. It is diluted to a concentration of 60 μM in the following reaction buffer: 50 mM Tris-HCl pH 8.2; 50 mM NaCl; 1 mM DTT; 20% glycerol. The background noise is determined using with the buffer without adding the enzyme. The products are tested at decreasing concentrations from 40 μM. The reaction is initiated by the addition of OMFP solution to a final concentration of 500 μM (prepared immediately before use from a 12.5 mM stock solution in 100% DMSO (Sigma #M2629)). After 4 hours at 30° C. in a disposable 384-well plate, the fluorescence measured at OD 475 nm is read on a Victor^2 plate reader (EGG-Wallac). The concentration that produces 50% inhibition of the enzyme reaction is calculated from three independent experiments. Only the values that fall within the linear part of the sigmoid curve are used for the linear regression analysis.

[2] = test system: DU 145 (human prostate carcinoma cells); test: Anti-proliferative activity, DU 145 cells (WST1 colorimetric test); type: cell-based; settings: DU-145, 96 h, 96 hours treatment, up to 10 μM, nested upper bounds, read-out: IC50 for proliferation of the DU 145 cell lines
Experimental: (§1) ii) Characterisation of Anti-Proliferative Activity:
(§2) By way of an example, the effect of treating two human cell lines MIA PaCa-2 and DU 145 with the compounds of the examples described hereinbefore will be studied. The cell lines DU 145 (human prostate carcinoma cells) and MIA PaCa-2 (human pancreatic carcinoma cells) were obtained from the American Tissue Culture Collection (Rockville, Md., USA). A 96-well plate was inoculated on day 0 with cells in 80 μl of Dulbecco's modified Eagle's medium (Gibco-Brl, Cergy-Pontoise, France) with 10% heat-inactivated foetal calf serum (Gibco-Brl, Cergy-Pontoise, France), 50,000 units/l of penicillin and 50 mg/l of streptomycin (Gibco-Brl, Cergy-Pontoise, France) and 2 mM of glutamine (Gibco-Brl, Cergy-Pontoise, France). The cells were treated on day 1 for 96 hours with increasing concentrations of each test compound up to 10 μM. At the end of this period, cell proliferation is quantified by means of a colorimetric test based on cleavage of the tetrazolium salt WST1 by the mitochondrial dehydrogenases in the viable cells, resulting in formation of formazan (Boehringer Mannheim, Meylan, France). These tests are performed in duplicate with 8 determinations per concentration tested. For each test compound, the values within the linear part of the sigmoid curve were subjected to linear regression analysis and used to estimate the IC50 inhibitory concentration. The products are solubilised in dimethylsulfoxide (DMSO) at a concentration of 10^−2 M and used in culture with a final DMSO concentration of 0.1%.

[3] = test system: MIA PaCa-2 (human pancreatic carcinoma cells); test: Anti-proliferative activity, MIA PaCa-2 cells (WST1 colorimetric test); type: cell-based; settings: MIA PaCa-2, 96 h, 96 hours treatment, up to 10 μM, nested upper bounds, read-out: IC50 for proliferation of the MIA PaCa-2 cell lines
Experimental: as §1, §2

SMILES	melting point	IC50 [1]	IC50 [2]	IC50 [3]
Cl.O=c1c(NCCNc2cc(N3CCCC3)nc(N3CCCC3)n2)c(Nc2ccc(Cl)cc2)c1=O	> 370 °C			
COc1c(NCCNc2cc(N3CCCC3)nc(N3CCCC3)n2)c(=O)c1=O [Example 1, 3-({2-[(2,6-dipyrrolidin-1-ylpyrimidin-4-yl)amino]ethyl}amino)-4-methoxycyclobut-3-ene-1,2-dione]	116 to 118 °C	≤ 5 µM		
O=c1c(NCCNc2cc(N3CCCC3)nc(N3CCCC3)n2)c(N2CCCCC2)c1=O [Example 2, 3-({2-[(2,6-dipyrrolidin-1-ylpyrimidin-4-yl)amino]ethyl}amino)-4-piperidin-1-ylcyclobut-3-ene-1,2-dione]	> 250 °C	≤ 5 µM		
CCCCNc1c(NCCNc2cc(N3CCCC3)nc(N3CCCC3)n2)c(=O)c1=O [Example 3, 3-(butylamino)-4-({2-[(2,6-dipyrrolidin-1-ylpyrimidin-4-yl)amino]ethyl}amino)cyclobut-3-ene-1,2-dione]	246 to 248 °C	≤ 1 µM		
O=c1c(NCCNc2cc(N3CCCC3)nc(N3CCCC3)n2)c(N2CCOCC2)c1=O [Example 4, 3-({2-[(2,6-dipyrrolidin-1-ylpyrimidin-4-yl)amino]ethyl}amino)-4-morpholin-4-ylcyclobut-3-ene-1,2-dione]	242 to 244 °C	≤ 5 µM		
COc1c(NCCN(C)CCNc2cc(N3CCCC3)nc(N3CCCC3)n2)c(=O)c1=O [Example 6]	132 to 134 °C	≤ 5 µM		
CN(CCNc1cc(N2CCCC2)nc(N2CCCC2)n1)CCNc1c(O)c(=O)c1=O [Example 7, 3-({2-[{2-[(2,6-dipyrrolidin-1-ylpyrimidin-4-yl)amino]ethyl}(methyl)amino]ethyl}amino)-4-hydroxycyclobut-3-ene-1,2-dione]		≤ 5 µM		
O=c1c(NCCNc2cc(N3CCCC3)nc(N3CCCC3)n2)c(Nc2ccc(Cl)cc2)c1=O [Example 9, 3-[(4-chlorophenyl)amino]-4-({2-[(2,6-dipyrrolidin-1-ylpyrimidin-4-yl)amino]ethyl}amino)cyclobut-3-ene-1,2-dione]	251 to 253 °C	≤ 1 µM		
O=S(=O)(O)O.O=c1c(NCCNc2cc(N3CCCC3)nc(N3CCCC3)n2)c(Nc2ccc(Cl)cc2)c1=O [Example 9b, 3-[(4-chlorophenyl)amino]-4-({2-[(2,6-dipyrrolidin-1-ylpyrimidin-4-yl)amino]ethyl}amino)cyclobut-3-ene-1,2-dione sulfate]	263 to 266 °C			
O=P(O)(O)O.O=c1c(NCCNc2cc(N3CCCC3)nc(N3CCCC3)n2)c(Nc2ccc(Cl)cc2)c1=O [Example 9c, 3-[(4-chlorophenyl)amino]-4-({2-[(2,6-dipyrrolidin-1-ylpyrimidin-4-yl)amino]ethyl}amino)cyclobut-3-ene-1,2-dione phosphate]	275 to 278 °C			
O=C(O)/C=C\C(=O)O.O=c1c(NCCNc2cc(N3CCCC3)nc(N3CCCC3)n2)c(Nc2ccc(Cl)cc2)c1=O [Example 9d, 3-[(4-chlorophenyl)amino]-4-({2-[(2,6-dipyrrolidin-1-ylpyrimidin-4-yl)amino]ethyl}amino)cyclobut-3-ene-1,2-dione maleate]	248 to 250 °C			
O=c1c(NCCNc2cc(N3CCCC3)nc(N3CCCC3)n2)c(Nc2ccc(-c3ccccc3)cc2)c1=O [Example 11, 3-(biphenyl-4-ylamino)-4-({2-[(2,6-dipyrrolidin-1-ylpyrimidin-4-yl)amino]ethyl}amino)cyclobut-3-ene-1,2-dione]		≤ 5 µM	≤ 10 µM	
O=c1c(NCCNc2cc(N3CCCC3)nc(N3CCCC3)n2)c(Nc2cccc(-c3nnn[nH]3)c2)c1=O [Example 12, 3-({2-[(2,6-dipyrrolidin-1-ylpyrimidin-4-yl)amino]ethyl}amino)-4-{[3-(1H-tetrazol-5-yl)phenyl]amino}cyclobut-3-ene-1,2-dione]		≤ 5 µM		

Continued, values first:

melting point	IC50 [1]	IC50 [2]	IC50 [3]	SMILES
263 to 265 °C	≤ 5 µM			CC(=O)Nc1ccc(Nc2c(NCCNc3cc(N4CCCC4)nc(N4CCCC4)n3)c(=O)c2=O)cc1 [Example 13, N-(4-{[2-({2-[(2,6-dipyrrolidin-1-ylpyrimidin-4-yl)amino]ethyl}amino)-3,4-dioxocyclobut-1-en-1-yl]amino}phenyl)acetamide]
154 to 156 °C	≤ 5 µM		≤ 10 µM	COc1cc(Nc2c(NCCNc3cc(N4CCCC4)nc(N4CCCC4)n3)c(=O)c2=O)cc(OC)c1OC [Example 14, 3-({2-[(2,6-dipyrrolidin-1-ylpyrimidin-4-yl)amino]ethyl}amino)-4-[(3,4,5-trimethoxyphenyl)amino]cyclobut-3-ene-1,2-dione]
179 to 181 °C	≤ 1 µM		≤ 10 µM	O=c1c(NCCNc2cc(N3CCCC3)nc(N3CCCC3)n2)c(Nc2ccccc2Cl)c1=O [Example 16, 3-[(2-chlorophenyl)amino]-4-({2-[(2,6-dipyrrolidin-1-ylpyrimidin-4-yl)amino]ethyl}amino)cyclobut-3-ene-1,2-dione]
> 260 °C	≤ 5 µM		≤ 10 µM	CNCc1ccc(Nc2c(NCCNc3cc(N4CCCC4)nc(N4CCCC4)n3)c(=O)c2=O)cc1.Cl [Example 22, 3-({2-[(2,6-dipyrrolidin-1-ylpyrimidin-4-yl)amino]ethyl}amino)-4-({4-[(methylamino)methyl]phenyl}amino)cyclobut-3-ene-1,2-dione hydrochloride]
> 260 °C	≤ 15 µM			O=c1c(NCCNc2cc(N3CCCC3)nc(N3CCCC3)n2)c(Nc2ccc(O)cc2)c1=O [Example 27, 3-({2-[(2,6-dipyrrolidin-1-ylpyrimidin-4-yl)amino]ethyl}amino)-4-[(4-hydroxyphenyl)amino]cyclobut-3-ene-1,2-dione]
224 to 226 °C	≤ 5 µM		≤ 10 µM	Cl.NCc1ccc(Nc2c(NCCNc3cc(N4CCCC4)nc(N4CCCC4)n3)c(=O)c2=O)cc1 [Example 28, 3-{[4-(aminomethyl)phenyl]amino}-4-({2-[(2,6-dipyrrolidin-1-ylpyrimidin-4-yl)amino]ethyl}amino)cyclobut-3-ene-1,2-dione hydrochloride]
250 to 252 °C	≤ 5 µM			Cl.NCCc1ccc(Nc2c(NCCNc3cc(N4CCCC4)nc(N4CCCC4)n3)c(=O)c2=O)cc1 [Example 30, 3-{[4-(2-aminoethyl)phenyl]amino}-4-({2-[(2,6-dipyrrolidin-1-ylpyrimidin-4-yl)amino]ethyl}amino)cyclobut-3-ene-1,2-dione hydrochloride]
	≤ 1 µM		≤ 10 µM	O=c1c(NCCNc2cc(N3CCCC3)nc(N3CCCC3)n2)c(Nc2ccccc2)c1=O [Example 35, 3-anilino-4-({2-[(2,6-dipyrrolidin-1-ylpyrimidin-4-yl)amino]ethyl}amino)cyclobut-3-ene-1,2-dione]
